Experiments:
[1] = system: PTEN-P2/H2B-GFP mouse prostate cancer cells; experiment: IVM pseudo-orthotopic prostate chamber model, tumor size
Description: Male Nude mice (25-35 g body weight) are anesthetized (7.3 mg ketamine hydrochloride and 2.3 mg xylazine/100 g body weight, i.p.) and placed on a heating pad. Two symmetrical titanium frames are implanted into a dorsal skinfold, so as to sandwich the extended double layer of skin. A 15 mm full thickness circular layer is excised. The underlying muscle (M. cutaneous max.) and subcutaneous tissues are covered with a glass coverslip incorporated in one of the frames. After a recovery period of 2-3 days, prostate tissue and cancer cell spheroids are carefully placed in the chamber. Small circular Band Aids are applied on the backside of the chamber after surgery to prevent scratching. Before surgery, Buprenorphine (0.1 mg/kg) is given IP. After surgery Meloxicam is given in the drinking water for 4 days Meloxicam (5.0 mg/ml), is added at 35 μl per 100 ml of water to be medicated.
Mice are anesthetized with 7.3 mg ketamine hydrochloride and 2.3 mg xylazine/100 g body weight, i.p. A lateral incision across the scrotum is made and the testes are individually ligated and excised. The wound is cauterized. The incision is then sutured and sealed with Nexaband® acrylic.
Preparation of tumor spheroids: Liquid overlay plates were generated using 1% molecular biology grade agarose melted in cell culture medium and plated in round bottom 96 well plates at 50 ul/well. Tumor cells grown as pre-confluent monolayers were trypsinized and diluted to a final volume of 1,000,000 cells/ml. Viability was determined by Trypan blue. Cells were placed onto the cooled agarose (70 μl/well) and allowed to compact into spheroids for 24 hours. The spheroids were picked with a pipette and transferred into serum-free media for implantation in the chambers.
IntraVital Microscopy (IVM) can be used to visualize tumors in animals and analyze various aspects of cancer physiology such as tumor vascularization, cell migration and metastasis. An advantage of IVM includes the real-time analysis of dynamic processes with single-cell resolution. IntraVital microscopy offers the possibility to follow tumor growth in a non-invasive, non-destructive manner. The application of IVM can be limited to animal models that bear visually accessible tumors. Therefore, the dorsal skinfold chamber model described above can be compatible with IVM. Using IVM can permit a number of parameters to be measured in living animals and as a function of time, including tumor growth, angiogenesis, infiltration by immune cells, tumor cell migration, mitosis (cell-division) and apoptosis (programmed cell death), all in the context of the host and in real time.
Unless otherwise indicated, Compound I was administered by oral gavage in a sesame oil (Carrier A) formulation. Compound I was dissolved in DMSO then in oil at a concentration of 0.25 mg/ml (weight/volume) with a final DMSO concentration of 0.5% (vol/vol), and administered to mice at 1 mg/kg. In some experiments, Compound I dissolved in a mixture of poly-ethylene glycol/DMSO 30% (w/v) was administered via intra-peritoneal injection.
The efficacy of the formulation of Compound I in Carrier A for oral administration was compared to the previous formulation of Compound I in poly-ethylene glycol (PEG) for intra-peritoneal injection (i.p.). These experiments were performed using Intra Vital Microscopy (IVM) in a pseudo-orthotopic prostate chamber model in which minced prostate tissue is grafted in chambers surgically placed in the dorsal skinfold of mice, and allowed to vascularize. Small tumor cells spheroids were then placed on the prostate tissue, creating a biologically relevant prostatic environment. The tumor cells that express fluorescent H2B-GFP and can be detected in situ and in real-time through the microscopy window of the dorsal chamber.
Epithelial cell lines derived from the prostate tumor of a PTEN-null mouse were used. Mouse prostate cancer cells PTEN-P2 are heterozygous for PTEN deletion and do express protein PTEN.

Sprague Dawley rats = experiment: Single-dose maximum tolerated dose (MTD) study; format: in vivo, rat; settings: 200 or 300 mg/kg, once, oral gavage
Description: (§1) A single-dose maximum tolerated dose (MTD) phase A study and a 7-day dose range-finding (DRF) phase B study were conducted in Sprague Dawley rats by MPI Research, Inc. (Mattawan, Mich.). A total of 62 males and 62 females rats were assigned to the study, which was performed in accordance with all current regulations. Animals were housed in standard conditions and had ad libitum access to food and water. Healthy animals of each sex were randomized into treatment groups using a standard, by weight, measured value randomization procedure. Compound I was administered by oral gavage, once at each dose level in Phase A (acute), or once daily for 7 consecutive days in Phase B. Oral gavage was chosen because the oral route is the intended route of administration in humans. Animals were observed twice daily for morbidity and mortality and were euthanatized for humane reasons where appropriate. An initial starting dose of 50 mg/kg was used for Phase A. Subsequent doses were increased or decreased based on the response to the preceding dose. […] The dose levels used in Phase B were based on the MTD identified in Phase A.
(§2) A single-dose maximum tolerated dose (MTD) study and a seven consecutive day dose-range finding study were carried out in Sprague Dawley by orally administering a formulation of Compound I in Carrier A. In the MTD phase, doses of 50, 100, 200 and 300 mg/kg were administered once to Sprague Dawley rats by oral gavage. The single-dose MTD of Compound I in rats was found at 100 mg/kg.

[2] = Single-dose maximum tolerated dose (MTD) study; format: in vivo, rat; settings: both sexes, Sprague Dawley, rat, in vivo; rats, oral gavage, Compound I in Carrier A
Description: as §1, §2

## CC1=CC(=O)c2c(O)cccc2C1=O [Compound I, 5-hydroxy-2-methylnaphthalene-1,4-dione]
[1]; 3 and 10 mg/kg/day in oil, oral, castrated mice
  Tumor regression at higher doses: no improvement over the dose of 1 mg/kg/day
[1]; Compound I administered orally in combination with surgical castration
  Combination efficacy: Yes
[1]; Compound I in Carrier A orally 1 mg/kg/day with degarelix
  Shrinkage of the tumors: approximately 50%
[1]; Compound I in Carrier A orally with abiraterone/prednisone
  Tumor size relative to the starting size: less than 60%
[1]; Compound I in Carrier A orally with bicalutamide
  Effect on tumor size: did not result in a reduction of initial tumor size
[1]; Compound I in Carrier A orally with dutasteride
  Shrinkage of the tumor size: approximately 30%
[1]; Compound I in Carrier A orally with enzalutamide
  Effect on tumor size: did not result in a reduction in tumor size
[1]; Compound I in Carrier A orally with orteronel
  Tumor size relative to the starting size: less than 60%
[1]; Compound I in PEG, i.p. 1 mg/kg/day, castrated mice, p<0.001
  Decrease of tumor sizes: 50%
[1]; combination of bicalutamide with Compound I
  Effectiveness vs drug alone: no more effective than treatment with the drug alone
[1]; combination of enzalutamide with Compound I
  Effectiveness vs drug alone: no more effective than treatment with the drug alone
[1]; combination of leuprolide and the oral formulation of Compound I
  Effect on tumor size: caused the tumors to shrink
[1]; combination of the oral formulation of Compound I and leuprolide
  Tumor flare vs leuprolide alone: shorter and of lesser amplitude
[1]; combination with 2 mg/kg dutasteride
  Efficiency vs combination with surgical castration: nearly as efficient as the combination of Compound I with surgical castration
[1]; combination with abiraterone/prednisone vs abiraterone/prednisone
  Efficiency vs chemical ADT by itself: more efficient
[1]; combination with abiraterone/prednisone, comparator printed as combination of Compound I and abiraterone/prednisone
  Shrinkage vs comparator combination: more shrinkage of tumors
[1]; combination with degarelix
  Shrinkage vs combination of Compound I and castration: more shrinkage of tumors
[1]; combination with degarelix vs degarelix
  Efficiency vs chemical ADT by itself: more efficient
[1]; combination with dutasteride at 2, 0.3, 0.1, 0.03 mg/kg
  Dose dependence of tumor regression: tumor regression proportionally to the dose of dutasteride
[1]; combination with dutasteride vs dutasteride, p<0.001
  Efficiency vs chemical ADT by itself: more efficient
[1]; combination with orteronel
  Shrinkage vs combination of Compound I and castration: more shrinkage of tumor size
[1]; combination with orteronel vs orteronel
  Efficiency vs chemical ADT by itself: more efficient
[1]; leuprolide plus Compound I orally 1 mg/kg/day, p=0.014 between treatments
  Maximum tumor size reached, relative to initial tumor size: 120%
[1]; lower doses than 1 mg/kg/day (FIG. 3B), oral in Carrier A, castrated mice
  Tumor regression at lower doses: less efficient at causing tumor regression
[1]; mice, up to 10 mg/kg/day for 21 days, no changes in whole body weights or animal behavior
  Tolerability of oral administration: well tolerated
[1]; oil formulation, oral, castrated mice
  Dose of optimal effect: 1 mg/kg/day
[1]; oral 1 mg/kg/day in Carrier A, castrated mice
  Tumor regression, oral formulation versus i.p. formulation: as effectively as i.p. injection of 1 mg/kg Compound I in PEG
[1]; see Example 5
  Dose at which Compound I was maximally effective: 1 mg/kg
Sprague Dawley rats
  Adverse clinical events: decreased activity, abnormal body carriage and piloerection
  Mortality after acute administration: unscheduled deaths in male rats on Days 1 and 2 but not in females
[2]
  MTD: 100 mg/kg
